Measured values taken from ChEMBL document CHEMBL3621133, “Macrocyclic derivatives of 6-methyluracil as ligands of the peripheral anionic site of acetylcholinesterase” (Medchemcomm, 2014).

Tests used:
Acetylcholinesterase [1] = biological target: T1, Acetylcholinesterase (Homo sapiens, UniProt P22303); experiment: Inhibition of AChE from human erythrocytes
Cholinesterase = Cholinesterase (Homo sapiens, UniProt P06276); experiment: Inhibition of BChE from human plasma
Rattus norvegicus [2] = experiment: […] in muscle action potential decrement in rat experimental autoimmune model of myasthenia gravis at 0.004 mg/kg, ip (reference value: 67.3 +/- 2.7%); type: functional
Rattus norvegicus [3] = experiment: […] in muscle action potential decrement in rat experimental autoimmune model of myasthenia gravis at 0.008 mg/kg, ip (reference value: 67.3 +/- 2.7%); type: functional
[4] = Toxicity in ip dosed rat; type: organism-based; conditions: in vivo
Acetylcholinesterase [5] = biological target: T1, Acetylcholinesterase; experiment: Reversible inhibition of AChE from human erythrocytes by Lineweaver-Burk plot
Rattus norvegicus [6] = experiment: […] in muscle action potential decrement in rat experimental autoimmune model of myasthenia gravis at 0.1 mg/kg, ip (reference value: 67.3 +/- 2.7%); type: functional
Rattus norvegicus [7] = experiment: […] in muscle action potential decrement in rat experimental autoimmune model of myasthenia gravis at 0.3 mg/kg, ip (reference value: 67.3 +/- 2.7%); type: functional

T1 sequence (P22303 whole entry): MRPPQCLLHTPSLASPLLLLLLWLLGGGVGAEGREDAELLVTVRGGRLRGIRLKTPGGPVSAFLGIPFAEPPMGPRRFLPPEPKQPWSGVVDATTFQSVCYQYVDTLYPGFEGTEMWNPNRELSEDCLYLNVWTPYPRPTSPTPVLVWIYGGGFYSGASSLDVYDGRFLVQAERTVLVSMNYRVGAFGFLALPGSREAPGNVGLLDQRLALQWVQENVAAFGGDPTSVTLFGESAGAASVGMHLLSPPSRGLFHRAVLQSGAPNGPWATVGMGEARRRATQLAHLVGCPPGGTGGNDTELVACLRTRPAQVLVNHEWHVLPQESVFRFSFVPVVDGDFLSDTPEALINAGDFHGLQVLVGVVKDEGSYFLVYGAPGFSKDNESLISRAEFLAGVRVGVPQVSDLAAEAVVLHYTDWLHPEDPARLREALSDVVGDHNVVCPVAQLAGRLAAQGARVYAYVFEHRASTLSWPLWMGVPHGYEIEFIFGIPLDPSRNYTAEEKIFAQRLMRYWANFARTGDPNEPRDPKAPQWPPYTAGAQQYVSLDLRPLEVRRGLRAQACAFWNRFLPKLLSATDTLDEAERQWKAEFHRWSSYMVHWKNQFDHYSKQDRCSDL
Chain of Cholinesterase (P06276 whole entry): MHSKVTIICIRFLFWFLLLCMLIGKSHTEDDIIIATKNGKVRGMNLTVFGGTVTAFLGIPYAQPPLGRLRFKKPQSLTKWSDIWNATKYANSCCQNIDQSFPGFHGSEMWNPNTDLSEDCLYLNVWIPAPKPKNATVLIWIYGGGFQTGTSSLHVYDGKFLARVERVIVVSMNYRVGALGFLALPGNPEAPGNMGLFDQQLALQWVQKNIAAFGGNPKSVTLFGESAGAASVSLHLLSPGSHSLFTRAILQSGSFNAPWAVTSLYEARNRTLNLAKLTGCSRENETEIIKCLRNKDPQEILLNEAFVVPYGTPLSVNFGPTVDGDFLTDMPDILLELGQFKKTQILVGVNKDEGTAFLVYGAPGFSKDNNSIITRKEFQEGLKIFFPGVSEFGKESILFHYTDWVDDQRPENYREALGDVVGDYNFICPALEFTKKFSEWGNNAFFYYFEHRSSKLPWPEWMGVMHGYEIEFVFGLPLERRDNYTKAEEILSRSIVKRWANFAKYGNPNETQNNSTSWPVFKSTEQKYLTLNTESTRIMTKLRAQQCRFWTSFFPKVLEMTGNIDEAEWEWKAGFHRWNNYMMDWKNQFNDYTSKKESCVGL

SMILES	IC50 (Acetylcholinesterase [1])	IC50 (Cholinesterase)	Activity (Rattus norvegicus [2])	Activity (Rattus norvegicus [3])	LD50 [4]	Ki (Acetylcholinesterase [5])	Activity (Rattus norvegicus [6])	Activity (Rattus norvegicus [7])
CC[N+]1(Cc2ccccc2[N+](=O)[O-])CCCCCC[N+](CC)(Cc2ccccc2[N+](=O)[O-])CCCCCn2c(=O)cc(C)n(c2=O)CCCCC1 (stereo not given)	59 nM	9200 nM	–	–	–	–	–	–
CC[N+](CC)(CCCCCn1c(C)cc(=O)n(CCCCC[N+](CC)(CC)Cc2ccccc2[N+](=O)[O-])c1=O)Cc1ccccc1[N+](=O)[O-].[Br-].[Br-]	0.14 nM	10000 nM	83.25%	95.41%	0.008 mg/kg	0.08 nM	–	–
CC[N+]1(Cc2ccccc2[N+](=O)[O-])CCCCCn2c(C)cc(=O)n(c2=O)CCCCC[N+](CC)(Cc2ccccc2[N+](=O)[O-])CCCCCn2c(=O)cc(C)n(c2=O)CCCCC1 (stereo not given)	130 nM	10000 nM	–	–	–	–	–	–
CN(C)C(=O)Oc1ccc[n+](C)c1.[Br-] [PYRIDOSTIGMINE BROMIDE]	–	–	–	–	2.7 mg/kg	–	91.3%	–
CC[N+]1(Cc2ccccc2[N+](=O)[O-])CCCCCn2c(C)cc(=O)n(c2=O)CCCCC[N+](CC)(Cc2ccccc2[N+](=O)[O-])Cc2ccc(cc2)C1.[Br-].[Br-] (stereo not given)	7 nM	1200 nM	–	–	15.5 mg/kg	50.1 nM	75%	95.4%
CC[N+]1(Cc2ccccc2[N+](=O)[O-])CCCCCn2c(C)c3c(=O)n(c2=O)CCCCC[N+](CC)(Cc2ccccc2[N+](=O)[O-])CCCCCn2c(C)c(c(=O)n(c2=O)CCCCC1)C3 (stereo not given)	4000 nM	20000 nM	–	–	–	–	–	–
